This is an account of results in BindingDB's records for patent US11542283 (Jiangsu Chia Tai Fenghai Pharmaceutical, 2023).

In this assay the target is T1, Proteasome subunit beta type-5 (Homo sapiens, UniProt P28074).
T1 sequence (P28074 whole entry): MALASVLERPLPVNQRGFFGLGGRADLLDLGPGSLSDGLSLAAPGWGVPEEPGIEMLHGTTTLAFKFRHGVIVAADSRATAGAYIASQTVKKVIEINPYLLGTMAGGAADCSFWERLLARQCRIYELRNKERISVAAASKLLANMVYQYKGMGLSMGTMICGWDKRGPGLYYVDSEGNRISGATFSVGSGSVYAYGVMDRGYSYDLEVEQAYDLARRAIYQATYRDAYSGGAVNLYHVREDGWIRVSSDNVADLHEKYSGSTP
As to the kind of experiment: Proteasome Inhibitory Activity. The text has this:
The proteasome used in the present invention is human erythrocyte 20S proteasome, and the enzyme, fluorescent substrate and test buffer are all purchased from Enzo.

`CSC[C@H](NC(=O)c1cc(Cl)ccc1Cl)C(=O)N[C@@H](CC(C)C)B(O)O` [US11542283, Compound IV-9] showed an IC50 of 4.86 nM.

With `CC(C)C[C@H](NC(=O)CNC(=O)c1cc(Cl)ccc1Cl)B1OC(=O)CC(CC(=O)O)(C(=O)O)O1` (some centres not stated) [US11542283, Compound MLN-9708], the midpoint of inhibition, the IC50, lay at 7.47 nM.

One may read the IC50 as the concentration that inhibits the measured activity by half.
